Consider three compounds from patent EP1019392B1, “TRICYCLIC AMIDES USEFUL FOR INHIBITION OF G-PROTEIN FUNCTION AND FOR TREATMENT OF PROLIFERATIVE DISEASES” (SCHERING CORPORATION, priority 1995, dated 1997).

Read-outs that look alike come from different tables or passages of the source.

Experiment [1] concerns the target T1, geranylgeranyl protein transferase (GGPT) I (Rattus norvegicus, UniProt P53610+Q04631).
T1 construct: geranylgeranyl protein transferase (GGPT) I were partially purified from rat brain; from tissue; host or cells: rat brain
The experiment in a line: In vitro enzyme assay: inhibition of geranylgeranyl protein transferase I (Ras-CVLL as acceptor). The format is biochemical. The note with it: Table 2; Ras-CVLL as isoprenoid acceptor. The text has this:
• 1. In vitro enzyme assays: Inhibition of farnesyl protein transferase and geranylgeranyl protein transferase. Both farnesyl protein transferase (FPT) and geranylgeranyl protein transferase (GGPT) I were partially purified from rat brain by ammonium sulfate fractionation followed by Q-Sepharose (Pharmacia, Inc.) anion exchange chromatography essentially as described by Yokoyama et al (Yokoyama, K., et al., (1991), A protein geranylgeranyltransferase from bovine brain: Implications for protein prenylation specificity, Proc. Natl. Acad. Sci USA 88: 5302-5306, the disclosure of which is incorporated herein by reference thereto). Human farnesyl protein transferase was also expressed in E. coli, using cDNA clones encoding both the a and b subunits. The methods used were similar to those published (Omer, C. et al., (1993), Characterization of recombinant human farnesyl protein transferase: Cloning, expression, farnesyl diphosphate binding, and functional homology with yeast prenyl-protein transferases, Biochemistry 32:5167-5176). Human farnesyl protein transferase was partially-purified from the soluble protein fraction of E. coli as described above. The tricyclic farnesyl protein transferase inhibitors disclosed herein inhibited both human and rat enzyme with similar potencies. Two forms of val^12-Ha-Ras protein were prepared as substrates for these enzymes, differing in their carboxy terminal sequence. One form terminated in cysteine-valine-leucine-serine (Ras-CVLS) the other in cystein-valine-leucine-leucine (Ras-CVLL). Ras-CVLS is a substrate for the farnesyl protein transferase while Ras-CVLL is a substrate for geranylgeranyl protein transferase I. The cDNAs encoding these proteins were constructed so that the proteins contain an amino-terminal extension of 6 histidine residues. Both proteins were expressed in Escherichia coli and purified using metal chelate affinity chromatography. The radiolabelled isoprenyl pyrophosphate substrates, [^3H]farnesyl pyrophosphate and [^3H]geranylgeranyl pyrophosphate, were purchased from DuPont/New England Nuclear. Several methods for measuring farnesyl protein transferase activity have been described (Reiss et al 1990, Cell 62: 81; Schaber et al 1990, J. Biol. Chem. 265: 14701; Manne et al 1990, PNAS 87: 7541; and Barbacid & Manne 1993, U.S. Patent No. 5,185,248). The activity was assayed by measuring the transfer of [^3H]farnesyl from [^3H]farnesyl pyrophosphate to Ras-CVLS using conditions similar to those described by Reiss et al. 1990 (Cell 62: 81) The reaction mixture contained 40 mM Hepes, pH 7.5; 20 mM magnesium chloride; 5 mM dithiothreitol; 0.25 µM [^3H]farnesyl pyrophosphate; […] Q-Sepharose-purified farnesyl protein transferase; the indicated concentration of tricyclic compound or dimethylsulfoxide (DMSO) vehicle control (5% DMSO final); and […] Ras-CVLS in a total volume of […]. The reaction was allowed to proceed for 30 minutes at room temperature and then stopped with 0.5 ml of 4% sodium dodecyl sulfate (SDS) followed by 0.5 ml of cold 30% TCA. Samples were allowed to sit on ice for 45 minutes and precipitated Ras protein was then collected on GF/C filter paper mats using a Brandel cell harvester. Filter mats were washed once with 6% TCA, 2% SDS and radioactivity was measured in a Wallac 1204 Betaplate BS liquid scintillation counter. Percent inhibition was calculated relative to the DMSO vehicle control. The geranylgeranyl protein transferase I assay was essentially identical to the farnesyl protein transferase assay described above, with two exceptions: [^3H]geranylgeranylpyrophosphate replaced farnesyl pyrophosphate as the isoprenoid donor and Ras-CVLL was the protein acceptor. This is similar to the assay reported by Casey et al (Casey, P.J., et al., (1991), Enzymatic modification of proteins with a geranylgeranyl isoprenoid, Proc. Natl. Acad. Sci, USA 88: 8631-8635, the disclosure of which is incorporated herein by reference thereto). • 2. […]

Experiment [2] has as its system Ras-CVLS processing in COS monkey kidney cells. As to the kind of experiment: COS cell assay: inhibition of Ras-CVLS processing (Western blot). The format is cell-based. The text has this: • 1. In vitro enzyme assays: Inhibition of farnesyl protein transferase and geranylgeranyl protein transferase. Both farnesyl protein transferase (FPT) and geranylgeranyl protein transferase (GGPT) I were partially purified from rat brain by ammonium sulfate fractionation followed by Q-Sepharose (Pharmacia, Inc.) anion exchange chromatography essentially as described by Yokoyama et al (Yokoyama, K., et al., (1991), A protein geranylgeranyltransferase from bovine brain: Implications for protein prenylation specificity, Proc. Natl. Acad. Sci USA 88: 5302-5306, the disclosure of which is incorporated herein by reference thereto). Human farnesyl protein transferase was also expressed in E. coli, using cDNA clones encoding both the a and b subunits. The methods used were similar to those published (Omer, C. et al., (1993), Characterization of recombinant human farnesyl protein transferase: Cloning, expression, farnesyl diphosphate binding, and functional homology with yeast prenyl-protein transferases, Biochemistry 32:5167-5176). Human farnesyl protein transferase was partially-purified from the soluble protein fraction of E. coli as described above. […] Two forms of val^12-Ha-Ras protein were prepared as substrates for these enzymes, differing in their carboxy terminal sequence. One form terminated in cysteine-valine-leucine-serine (Ras-CVLS) the other in cystein-valine-leucine-leucine (Ras-CVLL). Ras-CVLS is a substrate for the farnesyl protein transferase while Ras-CVLL is a substrate for geranylgeranyl protein transferase I. The cDNAs encoding these proteins were constructed so that the proteins contain an amino-terminal extension of 6 histidine residues. Both proteins were expressed in Escherichia coli and purified using metal chelate affinity chromatography. The radiolabelled isoprenyl pyrophosphate substrates, [^3H]farnesyl pyrophosphate and [^3H]geranylgeranyl pyrophosphate, were purchased from DuPont/New England Nuclear. Several methods for measuring farnesyl protein transferase activity have been described (Reiss et al 1990, Cell 62: 81; Schaber et al 1990, J. Biol. Chem. 265: 14701; Manne et al 1990, PNAS 87: 7541; and Barbacid & Manne 1993, U.S. Patent No. 5,185,248). […] The reaction was allowed to proceed for 30 minutes at room temperature and then stopped with 0.5 ml of 4% sodium dodecyl sulfate (SDS) followed by 0.5 ml of cold 30% TCA. Samples were allowed to sit on ice for 45 minutes and precipitated Ras protein was then collected on GF/C filter paper mats using a Brandel cell harvester. Filter mats were washed once with 6% TCA, 2% SDS and radioactivity was measured in a Wallac 1204 Betaplate BS liquid scintillation counter. Percent inhibition was calculated relative to the DMSO vehicle control. The geranylgeranyl protein transferase I assay was essentially identical to the farnesyl protein transferase assay described above, with two exceptions: [^3H]geranylgeranylpyrophosphate replaced farnesyl pyrophosphate as the isoprenoid donor and Ras-CVLL was the protein acceptor. […] Cell-Based Assay: Transient expression of val^12-Ha-Ras-CVLS and val^12-Ha-Ras-CVLL in COS monkey kidney cells: Effect of farnesyl protein transferase inhibitors on Ras processing and on disordered cell growth induced by transforming Ras. COS monkey kidney cells were transfected by electroporation with the plasmid pSV-SPORT (Gibco/BRL) containing a cDNA insert encoding either Ras-CVLS or Ras-CVLL, leading to transient overexpression of a Ras substrate for either farnesyl protein transferase or geranylgeranyl protein transferase I, respectively (see above). Following electroporation, cells were plated into 6-well tissue culture dishes containing 1.5 ml of Dulbecco's-modified Eagle's media (GIBCO, Inc.) supplemented with 10% fetal calf serum and the appropriate farnesyl protein transferase inhibitors. After 24 hours, media was removed and fresh media containing the appropriate drugs was re-added.
Background: Immunoblotting shows a protein as a band on a membrane.

The subject of experiment [3] is T24-BAG4 human bladder carcinoma cells expressing an activated H-ras gene. As to the kind of experiment: Cell Mat Assay, T24 tumor cells. The note with it: read-out: Tumor (T-24) IC50. The format is cell-based.
Experiment [4] relates to DLD-1-BAG human colon carcinoma cells expressing as activated K-ras gene. The experiment in a line: Cell Mat Assay, DLD-1 tumor cells. The format is cell-based. The note with it: Mat assay.
Experiment [5] deals with SW620-BAG human colon carcinoma cells expressing an activated K-ras gene. The experiment in a line: Cell Mat Assay, SW620 tumor cells. Format: cell-based. The note with it: Mat assay.
For experiment [6], the system named is Normal human HEPM fibroblasts. The experiment in a line: Cell Mat Assay, normal cell mat. Format: cell-based. The note with it: normal monolayer.
The subject of experiment [7] is DLD-1 (human colon carcinoma cells, ATCC # CCL 221). The experiment in a line: In Vivo Anti-Tumor Studies, subcutaneous DLD-1 tumors. Also noted: species or system athymic nu/nu female mice. Particulars: Mus musculus, DLD-1, po, QID, 4 weeks, range over the listed compounds; for inhibition in vivo at 10 mg/kg: 10 mg/kg p.o.; for inhibition in vivo at 50 mg/kg: 50 mg/kg p.o. The text has this: Tumor cells (5 X 10^5 to 8 X 10^6) of DLD-1 (human colon carcinoma cells, ATCC # CCL 221) are innolculated subcutaneously into the flank of 5-6 week o;d athymic nu/nu female mice.

Experiment [8] deals with T2, farnesyl protein transferase (FPT) (Rattus norvegicus, UniProt Q02293+Q04631).
T2 construct: were partially purified from rat brain by ammonium sulfate fractionation followed by Q-Sepharose; from tissue; host or cells: rat brain
The experiment in a line: In vitro enzyme assay: inhibition of farnesyl protein transferase (transfer of [3H]farnesyl to Ras-CVLS). Format: biochemical. As to the method:
• 1. In vitro enzyme assays: Inhibition of farnesyl protein transferase and geranylgeranyl protein transferase. […] Human farnesyl protein transferase was also expressed in E. coli, using cDNA clones encoding both the a and b subunits. […] Human farnesyl protein transferase was partially-purified from the soluble protein fraction of E. coli as described above. […] Two forms of val^12-Ha-Ras protein were prepared as substrates for these enzymes, differing in their carboxy terminal sequence. One form terminated in cysteine-valine-leucine-serine (Ras-CVLS) the other in cystein-valine-leucine-leucine (Ras-CVLL). Ras-CVLS is a substrate for the farnesyl protein transferase while Ras-CVLL is a substrate for geranylgeranyl protein transferase I. The cDNAs encoding these proteins were constructed so that the proteins contain an amino-terminal extension of 6 histidine residues. Both proteins were expressed in Escherichia coli and purified using metal chelate affinity chromatography. The radiolabelled isoprenyl pyrophosphate substrates, [^3H]farnesyl pyrophosphate and [^3H]geranylgeranyl pyrophosphate, were purchased from DuPont/New England Nuclear. […] The reaction was allowed to proceed for 30 minutes at room temperature and then stopped with 0.5 ml of 4% sodium dodecyl sulfate (SDS) followed by 0.5 ml of cold 30% TCA. Samples were allowed to sit on ice for 45 minutes and precipitated Ras protein was then collected on GF/C filter paper mats using a Brandel cell harvester. […] Percent inhibition was calculated relative to the DMSO vehicle control. The geranylgeranyl protein transferase I assay was essentially identical to the farnesyl protein transferase assay described above, with two exceptions: [^3H]geranylgeranylpyrophosphate replaced farnesyl pyrophosphate as the isoprenoid donor and Ras-CVLL was the protein acceptor. […] Cell-Based Assay: Transient expression of val^12-Ha-Ras-CVLS and val^12-Ha-Ras-CVLL in COS monkey kidney cells: Effect of farnesyl protein transferase inhibitors on Ras processing and on disordered cell growth induced by transforming Ras. COS monkey kidney cells were transfected by electroporation with the plasmid pSV-SPORT (Gibco/BRL) containing a cDNA insert encoding either Ras-CVLS or Ras-CVLL, leading to transient overexpression of a Ras substrate for either farnesyl protein transferase or geranylgeranyl protein transferase I, respectively (see above). Following electroporation, cells were plated into 6-well tissue culture dishes containing 1.5 ml of Dulbecco's-modified Eagle's media (GIBCO, Inc.) supplemented with 10% fetal calf serum and the appropriate farnesyl protein transferase inhibitors. After 24 hours, media was removed and fresh media containing the appropriate drugs was re-added. 48 hours after electroporation cells were examined under the microscope to monitor disordered cell growth induced by transforming Ras. Cells expressing transforming Ras become more rounded and refractile and overgrow the monolayer, reminiscent of the transformed phenotype. Cells were then photographed, washed twice with 1 ml of cold phosphate-buffered saline (PBS) and removed from the dish by scraping with a rubber policeman into 1 ml of a buffer containing 25 mM Tris, pH 8.0; 1 mM ethylenediamine tetraacetic acid; 1 mM phenylmethylsulfonyl fluoride; […] leupeptin; and 0.1 mM pepstatin. Cells were lysed by homogenization and cell debris was removed by centrifugation at 2000 x g for 10 min. Cellular protein was precipitated by addition of ice-cold trichloroacetic acid and redissolved in […] of SDS-electrophoresis sample buffer. […] Proteins resolved on the gels were electroblotted onto nitrocellulose membranes for immunodetection. […] After washing, membranes were incubated for one hour at room temperature with a 1:5000 dilution of secondary antibody, rabbit anti-rat IgG conjugated to horseradish peroxidase, in PBS containing 1% fetal calf serum.

Setting [9] is: Table 2, comparison with GGPT, read-out: ENZYME INHIBITION FPT IC50.

A word on the IC50: it is the concentration that gives 50% inhibition. The inhibition in vivo is the relative decrease from the control value, in per cent. For the compound `NC(=O)N1CCC(CC(=O)N2CCC(=C3c4ncc(Br)cc4CCc4cc(Cl)cc(Br)c43)CC2)CC1` (single isomer, unassigned) [Example 8B], the IC50 in experiment [1] is more than 60 µM; in experiment [2], 0.28 µM; in experiment [3], less than 1.6 µM; in experiment [4] it was less than 1.6 µM; in experiment [5], 3.1 µM; in experiment [6], more than 25 µM. In experiment [7], this compound registered an inhibition in vivo at 10 mg/kg of 7 to 50%. In addition, the inhibition in vivo at 50 mg/kg in experiment [7] was in the range of 35.4 to 83%.

Regarding `O=C(Cc1cc[n+]([O-])cc1)N1CCC(=C2c3ncc(Br)cc3CCc3cc(Cl)cc(Br)c32)CC1` (single isomer, unassigned) [Example 7B], the IC50 in experiment [8] (FPT IC50, Table 1, partially purified rat brain FPT, Ras-CVLS) is less than 0.003 µM; in experiment [8] (setting [9]), less than 0.003 µM; in experiment [1], more than 66 µM.

Turning to `NC(=O)N1CCC(CC(=O)N2CCC(C3c4ccc(Cl)cc4CCc4cc(Br)cnc43)CC2)CC1` (stereo not drawn) [Example 4], the IC50 is 0.046 µM in experiment [8] (Table 1, partially purified rat brain FPT, Ras-CVLS, read-out: FPT IC50); 0.046 µM in experiment [8] (setting [9]); more than 35.7 µM in experiment [1]; 3.1 µM in experiment [3] (Homo sapiens); more than 25 µM in experiment [6] (Homo sapiens, Fibroblast). The same compound returned an inhibition in vivo at 10 mg/kg in experiment [7] of 7 to 50%. The compound further yielded an inhibition in vivo at 50 mg/kg in experiment [7] of 35.4 to 83%.
